According to paper PMC11530827, “Characterization of a cytochrome P450 that catalyzes the O-demethylation of lignin-derived benzoates” (The Journal of Biological Chemistry, 2024):
Read-outs that look alike come from different tables or passages of the source.

What was measured:
PbdA [1] = biological target: T1, PbdA (Rhodococcus jostii, UniProt Q0SCI3); details: for NADH depletion rate / Rate of Aromatic turnover / Coupling: WT PbdAB; for NADH depletion rate: air-saturated MOPS (I = 0.1 M); for Rate of Aromatic turnover: appearance of O-demethylated product (disappearance of p-EB); for Coupling: ratio of aromatic turnover rate to NADH oxidation rate
T1 sequence (Q0SCI3 1-400): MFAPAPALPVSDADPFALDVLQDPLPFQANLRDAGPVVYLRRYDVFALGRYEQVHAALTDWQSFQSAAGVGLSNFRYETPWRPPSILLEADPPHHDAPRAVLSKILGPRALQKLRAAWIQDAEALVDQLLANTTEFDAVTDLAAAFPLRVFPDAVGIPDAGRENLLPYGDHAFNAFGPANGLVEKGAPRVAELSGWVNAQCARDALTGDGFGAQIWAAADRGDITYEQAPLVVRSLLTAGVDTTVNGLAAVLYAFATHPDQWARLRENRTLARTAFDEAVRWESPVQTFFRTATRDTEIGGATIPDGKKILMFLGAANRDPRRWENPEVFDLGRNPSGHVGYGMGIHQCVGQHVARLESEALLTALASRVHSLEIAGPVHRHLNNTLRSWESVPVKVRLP
Protocol: We then measured coupling under optimum conditions for other substrates. […] Finally, we measured the apparent steady-state kinetic parameters of the PbdA reaction under conditions of maximal coupling (Fig. S4).
For activity measurements 0.25 to 1 μM of PbdA and PbdB were combined in a 200 μl cuvette in 20 mM Mops, pH 7.2 with substrate diluted in the same buffer. NADH was added to 350 μM to initiate the reaction. For HPLC analysis, enzymatic reactions were acidified by adding acetic acid to 10% final concentration, centrifuged (16,000×g for 10 min), and filtered through a 0.2 μm polytetrafluoroethylene membrane. Samples were run over a Luna 5 μm C18(2) 100 Å 150 × 3 mm column (Phenomenex) at 0.7 ml min^−1 by a Waters 2695 separation HPLC module. Samples were eluted with a 16.8 ml linear gradient from 1% methanol plus 0.1% formic acid in water to 100% methanol plus 0.1% formic acid and monitored at 280 nm with a Waters 2996 photodiode array detector. Concentrations were determined by interpolation on a standard curve of 0 to 1 mM of authentic standard. NADH concentration was measured by absorbance at 340 nm, ε = 6.22 mM^-1 cm^-1. Coupling was calculated from the ratio of rate of aromatic turnover, as determined by HPLC, and the rate of NADH oxidation, determined spectroscopically. Buffer ionic strength was adjusted by addition of NaCl, as appropriate. Apparent steady-state kinetic parameters were calculated by fitting Michaelis–Menten equations to initial velocity of reactions at various concentrations of aromatic substrate (LEONORA).

PbdA [2] = biological target: T1, PbdA; experiment: Substrate binding to PbdA (WT) by type I spectral shift titration; set-up: hexaHis (N, cleaved yes); made in house; host or cells: PbdA: E. coli BL-21 λ (DE3); PbdB: Rhodococcus jostii RHA1; details: for %High-spin (percent of heme iron in high-spin state): on substrate binding
Protocol: The affinity of PbdA for various LDACs was measured by the type I spectral shift upon titration of aromatic compound (Fig. 2). This shift occurs as the compound displaces a water coordinated to the heme iron, initiating a spin state transition in the latter from a low spin, hexacoordinate, to a high spin, pentacoordinate form.
Figure 2 Substrate binding of PbdA. A, difference spectra of PbdA titrated with 1 to 50 μM p-MBA from the substrate-free enzyme. Darker colors indicate higher concentration of p-MBA. Spectra were collected after each addition of substrate to 1 μM enzyme in 20 mM Mops, I = 0.1 M, pH 7.2. B, binding isotherm of PbdA and p-MBA. The fitted curve represents a simple hyperbola. p-MBA, para-methoxybenzoate.
UV-visible spectroscopy was conducted with a Cary 60 spectrophotometer equipped with a thermostatted cuvette holder at 25 °C. Scans of purified proteins diluted in 20 mM Mops, I = 0.1 M, pH 7.2 were taken between 250 and 700 nm. Heme concentration was calculated as described previously ([35]). Carbon monoxide binding was determined by reduction of PbdA diluted in 20 mM Mops, I = 0.1 M, pH 7.2 as above by a few grains of […]. CO was bubbled into the reduced enzyme for approximately 60 s at a rate of one bubble per second. Dissociation constants (Kd) were determined by titration of ligands diluted into enzyme buffer from 1 M stocks prepared in dimethyl sulfoxide into PbdA diluted in 20 mM Mops, I = 0.1 M, pH 7.2. Spectra take upon addition of substrate were subtracted from the spectrum of the enzyme, and peak-to-trough distance was plotted by ligand concentration. Kd values were determined by fitting a hyperbolic equation to the data as described previously ([23], [36]). The proportion of high-spin heme iron was determined using the approximate peak-to-trough extinction coefficient (ε ≈ 100 mM^−1 cm^−1) ([36]).

CYP199A2 = system: CYP199A2; set-up: method as in PMID 20024082; details: cited from earlier work
RHA1 = experiment: Growth of RHA1 on p-EB; assay type: cell-based, Rhodococcus jostii RHA1; details: M9G with up to 5 mM p-EB; OD600 after 48 hours
Protocol: RHA1 was grown in M9 media supplemented with a mixture trace metals […]) ([37]) and growth substrate. Growth substrates were solubilized in dimethyl sulfoxide and added to the media. For the growth on p-EB experiment, RHA1 was grown in 1 ml […] supplemented with 5 mM benzoate for 1 day shaking at 30 °C. The cells were spun harvested and washed twice with […] and added to 3 ml […] containing p-EB or benzoate at a final OD600 of 0.05. OD600 of 150 μl culture in a 96-well plate was measured by a TECAN Spark microplate reader. […] When OD600 reached 0.6, cells were harvested, washed twice in […] and suspended in 50 ml of […] 1 mM p-EB. After 4 h of incubation, cell supernatant was collected for LC-MS analysis. Figure S6: Growth of RHA1 on p-EB. Growth of WT in […] supplemented with up to 5 mM of p-EB or 5 mM benzoate. OD600 was measured after 48 hours incubation.

[3] = pH 7.2, 25 °C, SD in parentheses
[4] = WT PbdA, 20 mM Mops, I = 0.1 M, pH 7.2, 25 °C, SD in parentheses, read-out: Kd

Row | Structure (SMILES) | NADH depletion rate (PbdA [1]; [3]) | Rate of Aromatic turnover (PbdA [1]; SD in parentheses) | Coupling (PbdA [1]) | Coupling (PbdA [1]; listed as isovanillate) | Kd (PbdA [2]; [4]) | %High-spin (percent of heme iron in high-spin state) (PbdA [2]; WT PbdA) | Coupling (PbdA [1]; listed as veratrate) | Turnover of substrate (CYP199A2) | Kd (PbdA [2]) | kcat (apparent) (PbdA [1]; WT PbdA with PbdB, air-saturated Mops (I = 0.1 M), pH 7.2, 25 °C, SD in parentheses) | Km (PbdA [1]; read-out: KM (apparent), WT PbdA with PbdB, air-saturated Mops (I = 0.1 M), pH 7.2, 25 °C, SD in parentheses) | Growth of RHA1 on the compound as substrate (RHA1)
1 | COc1ccc(C(=O)O)cc1O [Isovanillate, isovanillate] | 2200 (200) U mg P450^-1 | 1600 (100) U mg P450^-1 | 75.3 (0.1) % | approximately 75% | 90 µM | 94% |  |  |  |  |  | 
2 | COc1ccc(C(=O)O)cc1OC [Veratrate, veratrate] | 2830 (50) U mg P450^-1 | 2030 (60) U mg P450^-1 | 72 (3) % |  |  | 84% | approximately 75% | did not detectibly turn over | 18 µM |  |  | 
3 | CCc1ccc(C(=O)O)cc1 [p-EB, p-ethylbenzoate] | 830 (80) U mg P450^-1 | 900 (100) U mg P450^-1 | 110 (7) % |  | 6 µM | 72% |  |  |  | 0.14 (0.01) s^−1 | 12 µM | did not grow
